Assay results from ChEMBL document CHEMBL1201862, “PubChem BioAssay data set” (2004).
Active and inactive are the calls of the source.

Legend:
[1] = cells; type: functional, cell-based
[2] = target: T1, Nuclear receptor subfamily 0 group B member 1 (Homo sapiens, UniProt P51843); type: functional, cell-based;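 further: HEK293T cells transfected with SF-1 and DAX-1 plus StAR promoter luciferase reporter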
T1 sequence (P51843 whole entry): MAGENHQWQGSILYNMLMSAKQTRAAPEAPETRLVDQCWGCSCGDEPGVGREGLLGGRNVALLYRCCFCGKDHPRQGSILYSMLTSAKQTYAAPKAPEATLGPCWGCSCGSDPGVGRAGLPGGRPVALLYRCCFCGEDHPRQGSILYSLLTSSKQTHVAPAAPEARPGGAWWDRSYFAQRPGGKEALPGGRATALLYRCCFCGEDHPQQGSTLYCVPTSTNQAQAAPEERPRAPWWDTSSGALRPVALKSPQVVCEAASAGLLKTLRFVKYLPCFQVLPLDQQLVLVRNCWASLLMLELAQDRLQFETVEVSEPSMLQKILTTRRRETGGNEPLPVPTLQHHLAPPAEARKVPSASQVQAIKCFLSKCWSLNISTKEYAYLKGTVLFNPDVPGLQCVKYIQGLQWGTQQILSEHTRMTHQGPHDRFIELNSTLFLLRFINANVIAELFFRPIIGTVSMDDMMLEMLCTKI

[3] = target: Photoreceptor-specific nuclear receptor (Homo sapiens, UniProt Q9Y5X4); type: functional, cell-based;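 further: CHO-S cells with Gal4-NCOR and VP16-NR2E3 two-hybrid luciferase reporter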
Sequence of Photoreceptor-specific nuclear receptor (Q9Y5X4 whole entry, the tested form may be a part): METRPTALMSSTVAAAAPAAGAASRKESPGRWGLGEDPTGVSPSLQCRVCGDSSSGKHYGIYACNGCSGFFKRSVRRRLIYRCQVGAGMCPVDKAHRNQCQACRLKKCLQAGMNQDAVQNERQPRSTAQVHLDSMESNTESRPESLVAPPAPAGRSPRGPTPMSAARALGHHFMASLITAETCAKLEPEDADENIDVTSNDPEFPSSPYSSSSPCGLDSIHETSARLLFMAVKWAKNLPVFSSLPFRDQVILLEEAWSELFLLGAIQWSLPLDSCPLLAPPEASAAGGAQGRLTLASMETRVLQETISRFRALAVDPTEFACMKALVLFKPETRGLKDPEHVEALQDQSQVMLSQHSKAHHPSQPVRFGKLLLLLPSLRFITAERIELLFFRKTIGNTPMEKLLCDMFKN

[4] = system: Vero; assay: viability loss in Vero cells – cell-based, plate reader, cherry-pick samples, cytotoxicity control, dose response (AID 687020); type: functional; conditions: Chlorocebus sabaeus
[5] = target: Potassium voltage-gated channel subfamily KQT member 2 (Rattus norvegicus, UniProt O88943); assay: blockers of KCNQ2 channel current – cell-based, automated electrophysiology, set II, rat KCNQ2, dose response (AID 588637); type: functional
Sequence of Potassium voltage-gated channel subfamily KQT member 2 (O88943 whole entry, the tested form may be a part): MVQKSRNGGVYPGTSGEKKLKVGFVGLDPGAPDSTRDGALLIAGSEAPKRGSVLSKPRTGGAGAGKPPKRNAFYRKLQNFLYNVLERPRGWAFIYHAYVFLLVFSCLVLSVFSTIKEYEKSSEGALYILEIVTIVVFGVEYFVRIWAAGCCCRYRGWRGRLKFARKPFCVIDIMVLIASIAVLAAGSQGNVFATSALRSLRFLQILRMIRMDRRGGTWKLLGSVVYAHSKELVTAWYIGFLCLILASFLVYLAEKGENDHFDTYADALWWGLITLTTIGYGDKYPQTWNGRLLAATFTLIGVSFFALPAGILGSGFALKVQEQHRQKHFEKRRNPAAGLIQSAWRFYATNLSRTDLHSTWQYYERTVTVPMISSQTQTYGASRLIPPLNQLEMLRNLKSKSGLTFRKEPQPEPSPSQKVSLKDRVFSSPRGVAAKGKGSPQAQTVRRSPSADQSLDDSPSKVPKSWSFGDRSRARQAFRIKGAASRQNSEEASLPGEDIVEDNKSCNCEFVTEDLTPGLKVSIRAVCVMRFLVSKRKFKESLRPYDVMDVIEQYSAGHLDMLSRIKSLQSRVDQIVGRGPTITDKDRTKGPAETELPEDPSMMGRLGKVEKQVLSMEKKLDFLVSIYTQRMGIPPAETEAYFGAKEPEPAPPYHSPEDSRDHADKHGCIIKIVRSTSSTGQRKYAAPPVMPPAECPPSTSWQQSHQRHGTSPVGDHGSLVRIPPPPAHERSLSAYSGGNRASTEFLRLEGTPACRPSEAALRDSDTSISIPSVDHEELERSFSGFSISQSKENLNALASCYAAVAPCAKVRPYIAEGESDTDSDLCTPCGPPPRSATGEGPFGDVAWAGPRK

[6] = target: Hepatocyte nuclear factor 4-alpha (Homo sapiens, UniProt P41235); type: functional, cell-based;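 further: biochemical luminescence-based dose-response counterscreen measuring inhibition of HNF4 dimerization, run alongside a screen for blockers of ABHD5–perilipin-5 interaction; split luciferase complementation of HNF4 fusion proteins in cell lysate measuring dimerization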
Sequence of Hepatocyte nuclear factor 4-alpha (P41235 whole entry, the tested form may be a part): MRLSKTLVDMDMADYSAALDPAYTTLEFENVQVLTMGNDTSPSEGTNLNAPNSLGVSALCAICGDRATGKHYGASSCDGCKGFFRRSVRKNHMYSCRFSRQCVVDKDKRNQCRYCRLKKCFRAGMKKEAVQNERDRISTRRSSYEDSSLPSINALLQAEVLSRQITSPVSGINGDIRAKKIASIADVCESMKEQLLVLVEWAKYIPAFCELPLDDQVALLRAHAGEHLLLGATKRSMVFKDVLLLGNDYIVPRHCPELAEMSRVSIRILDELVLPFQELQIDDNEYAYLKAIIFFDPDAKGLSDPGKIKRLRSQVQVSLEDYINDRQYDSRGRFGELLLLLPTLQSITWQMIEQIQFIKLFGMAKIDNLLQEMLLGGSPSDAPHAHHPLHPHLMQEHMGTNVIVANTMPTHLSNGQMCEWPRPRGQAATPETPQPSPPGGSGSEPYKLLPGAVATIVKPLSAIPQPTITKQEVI

[7] = target: DNA dC->dU-editing enzyme APOBEC-3A (Homo sapiens, UniProt P31941); assay: A3A deaminase inhibition for selectivity – biochemical, dose response (AID 504722); type: functional
Sequence of DNA dC->dU-editing enzyme APOBEC-3A (P31941 whole entry): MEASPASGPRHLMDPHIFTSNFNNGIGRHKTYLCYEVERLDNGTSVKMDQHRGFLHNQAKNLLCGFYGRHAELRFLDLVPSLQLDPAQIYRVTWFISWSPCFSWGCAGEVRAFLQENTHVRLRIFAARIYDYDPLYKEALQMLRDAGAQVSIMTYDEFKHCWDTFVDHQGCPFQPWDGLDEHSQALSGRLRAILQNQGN

[8] = target: T2, Beta Lactamase (Pseudomonas aeruginosa, UniProt Q932Y6); assay: concentration-dependent VIM-2 enzyme inhibition – biochemical, epi-absorbance readout, selective inhibitors, dose response (AID 1919)
T2 sequence (Q932Y6 whole entry): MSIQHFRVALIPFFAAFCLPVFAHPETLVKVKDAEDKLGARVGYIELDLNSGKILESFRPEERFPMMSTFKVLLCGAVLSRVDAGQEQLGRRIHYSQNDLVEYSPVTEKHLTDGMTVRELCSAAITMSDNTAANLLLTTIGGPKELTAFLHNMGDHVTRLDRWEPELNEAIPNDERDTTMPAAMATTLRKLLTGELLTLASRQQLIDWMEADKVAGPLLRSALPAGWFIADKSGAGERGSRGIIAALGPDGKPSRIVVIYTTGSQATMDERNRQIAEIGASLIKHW

[9] = target: T3, Beta-lactamase (Pseudomonas aeruginosa, UniProt Q79MP6); assay: inhibition of IMP-1 beta-lactamase activity – biochemical, epi-absorbance, selectivity assay for VIM-2 inhibitor project, dose response (AID 1920)
T3 sequence (Q79MP6 whole entry): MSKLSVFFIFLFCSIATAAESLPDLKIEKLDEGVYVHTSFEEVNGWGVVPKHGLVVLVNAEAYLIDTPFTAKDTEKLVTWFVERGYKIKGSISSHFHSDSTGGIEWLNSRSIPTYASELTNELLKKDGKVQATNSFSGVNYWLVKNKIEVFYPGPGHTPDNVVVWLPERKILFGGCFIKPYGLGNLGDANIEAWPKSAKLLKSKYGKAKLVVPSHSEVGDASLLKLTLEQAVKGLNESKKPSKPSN

[10] = system: HEK293; assay: EBV LMP1 TES2 canonical NF-kB signalling blockers – cell-based, HEK293, luciferase, cherry-pick, dose response (AID 588343); type: functional; conditions: Homo sapiens
[11] = target: Beta-lactamase (Salmonella choleraesuis (strain SC-B67), UniProt Q5J463); assay: Epi-absorbance-based counterscreen for selective VIM-2 inhibitors: dose response biochemical high throughput screening assay to identify inhibitors of TEM-1 serine-beta-lactamase.
Sequence of Beta-lactamase (Salmonella choleraesuis (strain SC-B67), UniProt Q5J463) (Q5J463 whole entry): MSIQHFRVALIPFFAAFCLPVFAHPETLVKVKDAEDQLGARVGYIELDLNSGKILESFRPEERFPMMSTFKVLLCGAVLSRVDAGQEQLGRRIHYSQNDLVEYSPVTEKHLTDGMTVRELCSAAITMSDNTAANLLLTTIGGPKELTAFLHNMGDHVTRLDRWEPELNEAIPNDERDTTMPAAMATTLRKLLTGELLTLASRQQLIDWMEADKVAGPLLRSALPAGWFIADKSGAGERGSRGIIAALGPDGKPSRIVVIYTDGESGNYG

[12] = target: T3, Beta-lactamase; assay: […] counterscreen for selective VIM-2 inhibitors: dose response biochemical high throughput screening assay to identify inhibitors of IMP-1 metallo-beta-lactamase.
[13] = target: DNA dC->dU-editing enzyme APOBEC-3G (Homo sapiens, UniProt Q9HC16); assay: Dose Response confirmation of small molecule APOBEC3G DNA Deaminase Inhibitors via a fluorescence-based single-stranded DNA deaminase assay. [Related pubchem assays (depositor defined):AID493012, AID493028]; type: functional
Sequence of DNA dC->dU-editing enzyme APOBEC-3G (Q9HC16 whole entry): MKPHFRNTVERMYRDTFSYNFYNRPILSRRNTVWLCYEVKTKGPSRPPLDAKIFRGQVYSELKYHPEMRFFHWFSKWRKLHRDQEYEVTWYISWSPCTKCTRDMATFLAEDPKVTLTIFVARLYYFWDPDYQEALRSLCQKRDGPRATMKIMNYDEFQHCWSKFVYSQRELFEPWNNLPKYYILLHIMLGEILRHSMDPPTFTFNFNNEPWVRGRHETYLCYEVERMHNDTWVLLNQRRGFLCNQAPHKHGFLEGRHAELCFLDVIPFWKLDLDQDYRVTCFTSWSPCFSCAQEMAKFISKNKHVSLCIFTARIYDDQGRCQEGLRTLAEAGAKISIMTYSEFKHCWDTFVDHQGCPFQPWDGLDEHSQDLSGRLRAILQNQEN

[14] = target: T2, Beta Lactamase; assay: VIM-2 CCF2 hydrolysis inhibition, assay artifact filter – biochemical, FRET readout, CCF2 substrate, artefact control for selective VIM-2 inhibitor project, dose response (AID 1926)

COc1ccccc1NS(=O)(=O)c1cc(NC(=O)c2ccc(NC(C)=O)cc2)ccc1N1CCOCC1
IC50 [1]: > 67.5 µM (inactive) | IC50 [2]: > 67.5 µM (inactive)

CCOC(=O)N1CCN(C(=O)c2ccc(S(=O)(=O)Nc3ccc(C)cc3)cc2)CC1
IC50 [3]: 5.96 µM (active)

COc1ccc(C)cc1N(CC(=O)Nc1ccc(S(=O)(=O)N2CCOCC2)cc1)S(C)(=O)=O
AC50 [4]: 29.5 µM (active)

CCc1nc2ccc(F)cc2c(C(=O)NC2CCCCC2C)c1C (centres undefined)
IC50 [5]: 0.636 µM (active)

CC(C)(C)NC(=O)C(c1ccc(-c2ccccc2)cc1)n1c(=O)c(-c2ccco2)nc2ccccc21 (centres undefined)
IC50 [6]: 1.91 µM (active)

CC(=C/c1ccccc1)/C=N/n1c(S)nnc1-c1ccncc1
IC50 [7]: > 100 µM (inactive) | IC50 [8]: > 59.6 µM (inactive) | IC50 [9]: > 59.6 µM (inactive) | AC50 [10]: 5.9 µM (active) | IC50 [11]: > 59.6 µM (inactive) | IC50 [12]: > 59.6 µM (inactive) | IC50 [13]: 2.33 µM (active) | IC50 [14]: 3.26 µM (active)
